One experiment concerns the target T1, Apime-ASTA-R (Apis mellifera, UniProt A0A7M7ILT1).
T1 sequence (A0A7M7ILT1 1-361): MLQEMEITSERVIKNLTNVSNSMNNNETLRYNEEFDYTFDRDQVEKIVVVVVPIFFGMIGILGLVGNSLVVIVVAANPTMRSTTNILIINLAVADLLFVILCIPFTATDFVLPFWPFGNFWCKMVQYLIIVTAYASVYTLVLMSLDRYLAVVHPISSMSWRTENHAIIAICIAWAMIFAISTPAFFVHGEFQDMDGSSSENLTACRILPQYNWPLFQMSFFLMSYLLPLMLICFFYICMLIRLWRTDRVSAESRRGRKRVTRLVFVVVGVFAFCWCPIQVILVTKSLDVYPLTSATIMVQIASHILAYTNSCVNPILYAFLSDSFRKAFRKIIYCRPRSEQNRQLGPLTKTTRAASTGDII
Kind of experiment: Intracellular calcium measurement, HEK293 cells expressing Apime-ASTA-R with Gαqi9 chimeric G protein. It is filed as cell-based. As to conditions: HEK293 with Gαqi9, Fig 4D. The protocol:
This vector contains an ATG initiation codon in phase with a mammalian signal peptide sequence of metabotropic glutamate receptor 5 to address receptor protein to the cell membrane, with a hemagglutinin sequence (TAG HA), and MluI and HindIII restriction sites used for cloning. The coding regions of the genes of interest were PCR amplified from cDNA template. After extraction from whole brains, 1 μg of total RNA was reverse-transcribed with random primers. […] PCR reactions included: 30s at 98°C, then 30 cycles of 10s at 98°C, 30s at 60°C, 1 min at 72°C and finally, 5 minutes at 72°C. Cloning required several amplification and digestion steps to insert the full cDNA sequences in the vector.
In all cases, 2 μg of plasmid DNA encoding the Gαqi9 chimeric G protein was included to enable artificial coupling of the receptors to phospholipase C. Electroporation (250 V, 800 μF, Biorad GenePulser X-cell) was performed in a total volume of 300 μl of electroporation buffer (50 mM K2HPO4, 20 mM CH3COOK, 20 mM KOH, 26.5 mM MgSO4, pH 7.4). After electroporation, cells were resuspended in 10 ml of culture medium and split (100 μl/well) into polyornithine-coated (Sigma #P3655), black-walled, clear bottom 96-well plates (Greiner bio-one #655090) and grown for a further 48 h prior to analyzing receptor properties. All products used for cell culture were purchased from Invitrogen Life Technologies.
Cells were washed with freshly prepared 20 mM Hepes, 1 mM MgSO4, 3.3 mM Na2CO3, 1.3 mM CaCl2, 0.1% BSA, 2.5 mM probenecid in 1X Hank's balanced salt solution (Gibco #14185), pH7.4 buffer and loaded with 1 μM Ca^2+-sensitive fluorescent dye Fluo-4 AM (Invitrogen # F14202) for 1 h at 37°C. Cells were washed once and incubated with 50 μl of buffer. A plate was prepared with the various concentrations of peptides to be tested, and 50 μl of 2X concentrated-drug solution was added in each well after 20 s of recording. Fluorescence signals (excitation 485 nm, emission 525 nm) were measured by using the fluorescence microplate reader Flexstation (Molecular Devices) at sampling intervals of 1.5 s for 60 s. All represented data correspond to means ± standard deviation (SD) from experiments performed in triplicate.
This method allows detecting ligand-induced activation of the receptor by measuring the release of intracellular calcium.
(In general: Calcium flux is commonly read through the fluorescence of an indicator in the cells.)

Experiment [1] relates to honey bees (Apis mellifera). Kind of experiment: Appetitive olfactory learning (conditioning of proboscis extension reflex). In kind it is in vivo. As to conditions: for change of conditioned responses in last conditioning trial vs vehicle (GLM coefficient ± standard error): ~200 nl into head haemolymph 1 h before conditioning; for effect on olfactory learning performance, in words: injected into the head before conditioning, range of concentrations, vs vehicle-injected controls, Fig 9. As to the method:
For behavioral experiments, bees departing from the hive (mostly foragers) were chosen as they usually show good motivation and learning ability. Each cold-anesthetized animal was introduced into a metal holder and fixed to it in order to restrain all movements of the appendages apart from those of the antennae and proboscis. Each bee was then fed with 5 μl of a sucrose solution (50% w/w in water), and its median ocellus was removed to allow injection of allatostatin into the head capsule. All bees were then placed in a dark, warm (25°C) and humidified compartment for 3 hours, before the experiments began.
(§1) The vehicle for allatostatins was a saline solution made of PBS containing the protease blocker, 1 mM PMSF (prepared from a 30mM stock solution in 100% ethanol, final concentration of ethanol 3.3%).
(§2) The allatostatins were injected into the head haemolymph after penetrating the median ocellus, either 1 hour before olfactory conditioning or sucrose responsiveness assessment, or immediately after olfactory conditioning. All injections were performed under a binocular microscope. A micromanipulator-controlled Hamilton syringe (Nanofil, equipped with a NF33BV2 needle, WPI) was used to inject approximately 200 nl of peptide solution. To make sure that the solution was properly injected, it was pushed out of the syringe so that a drop was visible and then the drop was put in contact with the haemolymph where it was quickly absorbed thanks to the respiratory movements of the bee. Any bee with excessive bleeding was discarded.
Associative conditioning of the proboscis extension reflex was used to monitor effects of allatostatin treatment on appetitive olfactory learning performance. Olfactory stimuli were prepared shortly before conditioning by inserting a small piece of filter paper soaked with 4μl of pure odorant (from Sigma-Aldrich, Lyon, France) in one of the 8 channels of a custom-made, computer-driven olfactometer (P. Arrufat, Research Center on Animal Cognition, Toulouse, France). Immediately before conditioning, the integrity of the proboscis extension reflex was checked by touching both antennae with a 50% (w/w in water) sucrose solution. Olfactory conditioning of this reflexive response was carried out following a standard protocol consisting of three paired presentations of the odor (conditioned stimulus, CS) with 50% sucrose (the unconditioned stimulus, US) separated by a 10-min interval. Each trial included a familiarization phase in which the bee was placed in the conditioning set up for 13 s before forward pairing of the CS-US. The CS (1-nonanol) was delivered to the bee through an airflow for 4 s, and the US (sucrose solution) for 3 s, with a 1 s CS-US overlap. The US was presented by gently touching the antennae to elicit the PER; as soon as the bee extended its proboscis it was allowed to lick the toothpick. This sequence was controlled by the computer-driven olfactometer.
(§3) Functional data (receptor-mediated calcium, cAMP signals and binding) were plotted and regression curves were fitted using the GraphPad Prism software (San Diego, CA). The learning data were analyzed with generalized linear effects modeling (GLM) for binomial data using the R package lme4 [67]. Response levels recorded in the last conditioning trial were used to assess the effect of treatment on learning. For 1-hour memory and generalization tests, effects of allatostatin treatment were compared for each odor tested. Generalized linear mixed effects modeling (GLMM) was also used to analyze responsiveness to sucrose, with concentration and treatment as fixed factors and the bee identity and solution presented (either sucrose or water) as random factors. […] All statistics were generated in R [68].

Experiment [2] relates to honey bees (Apis mellifera). Kind of experiment: Sucrose responsiveness assessment. In kind it is in vivo. The settings on record: 1μM; for sensitivity to sucrose vs control (GLM coefficient ± standard error) / sensitivity to water vs control (GLM coefficient ± standard error): injected 1h before test; for sensitivity to sucrose vs control (GLM coefficient ± standard error): sucrose 0.1–30%, ASTA p = 0.76, ASTC p = 0.55, ASTCC p = 0.13, N = 35, 49, 29 (Fig 10A); for sensitivity to water vs control (GLM coefficient ± standard error): ASTA p = 0.44, ASTC p = 0.30, ASTCC p = 0.22, N = 35, 49, 29. The protocol: as §1, §2
Since sucrose was presented diluted in water, bees were given water ad libitum immediately before testing to ensure that their responses would be elicited by sucrose only. We followed a published protocol: six sucrose solutions of increasing concentration (0.1%, 0.3%, 1%, 3%, 10% and 30%) were presented in succession to the antennae, interspersed with water stimulations to avoid sensitization. For each animal, the presence or absence of a proboscis extension response to each stimulus was recorded.
as §3

The mark [3] stands for this setting: 10^-6M, ASTA p<0.01, ASTC p<0.05, ASTCC p<0.001.

Each structure is given as a SMILES string. Entries after “also recorded” stand apart in the source; their conditions may differ. Where a SMILES comes first, the peptide text is derived from it. Bridges are numbered along the chain shown (N, C = ends).

`CC(C)[C@@H]1NC(=O)[C@H](C)NC(=O)[C@H](CC(N)=O)NC(=O)[C@H](Cc2ccccc2)NC(=O)[C@H](Cc2ccc(O)cc2)NC(=O)[C@@H](NC(=O)[C@H](CCCNC(=N)N)NC(=O)[C@H](Cc2c[nH]c3ccccc23)NC(=O)[C@H](Cc2ccc(O)cc2)NC(=O)[C@@H](NC(=O)[C@H](CCCNC(=N)N)NC(=O)CNC(=O)[C@H](CCCCN)NC(=O)[C@H](C)NC(=O)[C@H](CCC(N)=O)NC(=O)CN)C(C)C)CSSC[C@@H](C(=O)N[C@@H](Cc2ccccc2)C(=O)O)NC(=O)[C@H]([C@@H](C)O)NC1=O` [Apime-ASTCC] (H-GQAKGRVYWRCYFNAVTCF-OH; disulfide 11-18; N-terminus assumed): the “receptor activation (calcium), in words” value at Apime-ASTA-R is recorded as “not activated by either ASTC or ASTCC”. Also, the “change of conditioned responses in last conditioning trial vs vehicle (GLM coefficient ± standard error)” value in experiment [1] (10^-3M, ASTCC p<0.05) is on record as -1.04±0.45; in experiment [1] (10^-4M, ASTA p<0.01, ASTCC p<0.01) it was -1.35±0.44; in experiment [1] (setting [3]) it was -1.75±0.43; in experiment [1] (10^-7M, ASTCC p<0.001), -1.59±0.44. Further, the “effect on olfactory learning performance, in words” value in experiment [1] was “the effects of each peptide were dose-dependent”; in experiment [1] (listed as ASTCC), “apparent at much lower doses than effects of ASTC; also recorded: significant, dose-dependent (yet not linear) decrease in the percentage of bees that learned”. Moreover, the “responsiveness to sucrose or water / feeding, in words” value in experiment [2] is “responded as well to 50% sucrose stimulations as control bees”. Moreover, the “sensitivity to sucrose vs control (GLM coefficient ± standard error)” value in experiment [2] is reported as 1.21±0.81. In experiment [2], the “sensitivity to water vs control (GLM coefficient ± standard error)” value is 0.90±0.74.
With `CC(C)[C@@H]1NC(=O)[C@H](C)NC(=O)[C@H](CC(N)=O)NC(=O)[C@H](Cc2ccccc2)NC(=O)[C@H](C)NC(=O)[C@@H](NC(=O)[C@H](CCC(N)=O)NC(=O)[C@H](CCCCN)NC(=O)[C@H](Cc2c[nH]c3ccccc23)NC(=O)[C@H](Cc2ccc(O)cc2)NC(=O)[C@@H](N)CO)CSSC[C@@H](C(=O)N[C@@H](Cc2ccccc2)C(N)=O)NC(=O)[C@H](CO)NC1=O` [Apime-ASTC] (H-SYWKQCAFNAVSCF-NH2; disulfide 6-13; N-terminus assumed), at Apime-ASTA-R, the “receptor activation (calcium), in words” value is recorded as “not activated by either ASTC or ASTCC”. Moreover, the “change of conditioned responses in last conditioning trial vs vehicle (GLM coefficient ± standard error)” value in experiment [1] (10^-5M, ASTA p<0.05, ASTC p<0.05) was -0.84±0.42; in experiment [1] (setting [3]), -0.91±0.41. In addition, the “effect on olfactory learning performance, in words” value was “the effects of each peptide were dose-dependent” in experiment [1] and “significant, dose-dependent (yet not linear) decrease in the percentage of bees that learned” in experiment [1] (listed as ASTC). Besides, in experiment [2], the “responsiveness to sucrose or water / feeding, in words” value is “responded as well to 50% sucrose stimulations as control bees”. Moreover, the “sensitivity to sucrose vs control (GLM coefficient ± standard error)” value in experiment [2] is 0.41±0.68. Moreover, the “sensitivity to water vs control (GLM coefficient ± standard error)” value in experiment [2] was -0.71±0.68.

For the origin of these results see PMC4704819, “Honey Bee Allatostatins Target Galanin/Somatostatin-Like Receptors and Modulate Learning: A Conserved Function?” (PLoS ONE, 2016).
